Data on 1 compound can be found in article PMC4036227 (Journal of medicinal chemistry, 2013).

The target in this assay is WT (S31) M2 proton channel (full length AM2 protein) (Influenza A virus, UniProt P0DOF5). The assay can be described thus: biochemical. The following applies: read-out: WT % inhibition (TEVC).
WT (S31) M2 proton channel (full length AM2 protein), sequence (P0DOF5 whole entry): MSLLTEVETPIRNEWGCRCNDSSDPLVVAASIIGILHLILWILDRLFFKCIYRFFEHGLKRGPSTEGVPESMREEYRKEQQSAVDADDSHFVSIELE

Regarding `COC(=O)[C@H](Cc1cnc[nH]1)NCC12CC3CC(CC(C3)C1)C2` [Compound 3], the inhibition at 100 µM stood at 21%.
